Reference: patent US7396837B2, “Antitumoral analogs of lamellarins” (Pharma Mar, S.A.U., priority 2002, dated 2008)

Columns and labels:
Format in all cases: cell-based
K-562 = assay: SRB colorimetric cell growth inhibition assay, K-562; conditions: Homo sapiens, K562, K-562; for GI50: GI=growth inhibition, read-out: GI50 K-562; for CC50: cell killing (cytotoxic effect), read-out: LC50 K-562; for IC (TGI): total growth inhibition (cytostatic effect), read-out: TGI K-562
Method in brief: (§1)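 In this cytotoxicity screen, compound stays in contact with the cultured human cancer cells without washout; sulforhodamine B binding gives the measure of cell number, and endpoints separate growth inhibition from cytostasis (TGI) and killing (LC).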

A-549 = assay: SRB colorimetric cell growth inhibition assay, A-549; conditions: Homo sapiens, A549, A-549; for GI50: GI=growth inhibition, read-out: GI50 A-549; for CC50: cell killing (cytotoxic effect), read-out: LC50 A-549; for IC (TGI): total growth inhibition (cytostatic effect), read-out: TGI A-549
Method in brief: as §1

SK-MEL-28 = assay: SRB colorimetric cell growth inhibition assay, SK-MEL-28; conditions: Homo sapiens, SK-MEL-28, MEL-28; for GI50: GI=growth inhibition, read-out: GI50 MEL-28; for CC50: cell killing (cytotoxic effect), read-out: LC50 MEL-28; for IC (TGI): total growth inhibition (cytostatic effect), read-out: TGI MEL-28
Method in brief: as §1

HT-29 = assay: SRB colorimetric cell growth inhibition assay, HT-29; conditions: Homo sapiens, HT-29, HT-29; for GI50: GI=growth inhibition, read-out: GI50 HT-29; for CC50: cell killing (cytotoxic effect), read-out: LC50 HT-29; for IC (TGI): total growth inhibition (cytostatic effect), read-out: TGI HT-29
Method in brief: as §1

LoVo = assay: SRB colorimetric cell growth inhibition assay, LoVo; conditions: Homo sapiens, LoVo; for GI50: GI=growth inhibition, read-out: GI50 LOVO; for CC50: cell killing (cytotoxic effect), read-out: LC50 LOVO; for IC (TGI): total growth inhibition (cytostatic effect), read-out: TGI LOVO
Method in brief: as §1

LoVo-Dox = assay: SRB colorimetric cell growth inhibition assay, LoVo-Dox (MDR); conditions: Homo sapiens, LOVO-DOX; for GI50: GI=growth inhibition, read-out: GI50 LOVO-DOX; for CC50: cell killing (cytotoxic effect), read-out: LC50 LOVO-DOX; for IC (TGI): total growth inhibition (cytostatic effect), read-out: TGI LOVO-DOX
Method in brief: as §1

DU-145 = assay: SRB colorimetric cell growth inhibition assay, DU-145; conditions: Homo sapiens, DU-145, DU-145; for GI50: GI=growth inhibition, read-out: GI50 DU-145; for CC50: cell killing (cytotoxic effect), read-out: LC50 DU-145; for IC (TGI): total growth inhibition (cytostatic effect), read-out: TGI DU-145
Method in brief: as §1

LNCaP = assay: SRB colorimetric cell growth inhibition assay, LNCaP; conditions: Homo sapiens, LNCaP, LN-caP; for GI50: GI=growth inhibition, read-out: GI50 LN-caP; for CC50: cell killing (cytotoxic effect), read-out: LC50 LN-caP; for IC (TGI): total growth inhibition (cytostatic effect), read-out: TGI LN-caP
Method in brief: as §1

SK-BR-3 = assay: SRB colorimetric cell growth inhibition assay, SK-BR-3; conditions: Homo sapiens, SK-BR-3, SK-BR-3; for GI50: GI=growth inhibition, read-out: GI50 SK-BR-3; for CC50: cell killing (cytotoxic effect), read-out: LC50 SK-BR-3; for IC (TGI): total growth inhibition (cytostatic effect), read-out: TGI SK-BR-3
Method in brief: as §1

IGROV = assay: SRB colorimetric cell growth inhibition assay, IGROV; conditions: Homo sapiens, IGROV; for GI50: GI=growth inhibition, read-out: GI50 IGROV; for CC50: cell killing (cytotoxic effect), read-out: LC50 IGROV; for IC (TGI): total growth inhibition (cytostatic effect), read-out: TGI IGROV
Method in brief: as §1

IGROV-ET = assay: SRB colorimetric cell growth inhibition assay, IGROV-ET (ET-743 resistant); conditions: Homo sapiens, IGROV-ET; for GI50: GI=growth inhibition, read-out: GI50 IGROV-ET; for CC50: cell killing (cytotoxic effect), read-out: LC50 IGROV-ET; for IC (TGI): total growth inhibition (cytostatic effect), read-out: TGI IGROV-ET
Method in brief: as §1

HeLa = assay: SRB colorimetric cell growth inhibition assay, HeLa; conditions: Homo sapiens, HeLa; for GI50: GI=growth inhibition, read-out: GI50 HELA; for CC50: cell killing (cytotoxic effect), read-out: LC50 HELA; for IC (TGI): total growth inhibition (cytostatic effect), read-out: TGI HELA
Method in brief: as §1

HeLa-APL = assay: SRB colorimetric cell growth inhibition assay, HeLa-APL (aplidine resistant); conditions: Homo sapiens, HELA-APL; for GI50: GI=growth inhibition, read-out: GI50 HELA-APL; for CC50: cell killing (cytotoxic effect), read-out: LC50 HELA-APL; for IC (TGI): total growth inhibition (cytostatic effect), read-out: TGI HELA-APL
Method in brief: as §1

PANC-1 = assay: SRB colorimetric cell growth inhibition assay, PANC-1; conditions: Homo sapiens, PANC-1, PANC-1; for GI50: GI=growth inhibition, read-out: GI50 PANC-1; for CC50: cell killing (cytotoxic effect), read-out: LC50 PANC-1; for IC (TGI): total growth inhibition (cytostatic effect), read-out: TGI PANC-1
Method in brief: as §1

COc1cc(-c2c3c4cc(OC)c(OC(=O)[C@@H](N)C(C)C)cc4oc(=O)c3n3ccc4cc(OC(=O)[C@@H](N)C(C)C)c(OC)cc4c23)ccc1OC(=O)[C@@H](N)C(C)C [Compound 195]
GI50 (K-562): 11.7 nM | CC50 (K-562): 170 nM | IC (TGI) (K-562): 40.9 nM | GI50 (A-549): 113 nM | CC50 (A-549): 11000 nM | IC (TGI) (A-549): 1150 nM | GI50 (SK-MEL-28): 44.1 nM | CC50 (SK-MEL-28): 1940 nM | IC (TGI) (SK-MEL-28): 159 nM | GI50 (HT-29): 2150 nM | CC50 (HT-29): 8620 nM | IC (TGI) (HT-29): 4310 nM | GI50 (LoVo): 150 nM | CC50 (LoVo): 783 nM | IC (TGI) (LoVo): 342 nM | GI50 (LoVo-Dox): 106 nM | CC50 (LoVo-Dox): 2500 nM | IC (TGI) (LoVo-Dox): 500 nM | GI50 (DU-145): 13.7 nM | CC50 (DU-145): 58.5 nM | IC (TGI) (DU-145): 28.4 nM | GI50 (LNCaP): 22.1 nM | CC50 (LNCaP): 365 nM | IC (TGI) (LNCaP): 86.4 nM | GI50 (SK-BR-3): 45.5 nM | CC50 (SK-BR-3): 840 nM | IC (TGI) (SK-BR-3): 89.8 nM | GI50 (IGROV): 25 nM | CC50 (IGROV): 855 nM | IC (TGI) (IGROV): 145 nM | GI50 (IGROV-ET): 41.7 nM | CC50 (IGROV-ET): 2740 nM | IC (TGI) (IGROV-ET): 215 nM | GI50 (HeLa): 51.3 nM | CC50 (HeLa): 633 nM | IC (TGI) (HeLa): 204 nM | GI50 (HeLa-APL): 87.6 nM | CC50 (HeLa-APL): 536 nM | IC (TGI) (HeLa-APL): 234 nM | GI50 (PANC-1): 56.9 nM | CC50 (PANC-1): 3110 nM | IC (TGI) (PANC-1): 363 nM

COc1cc2c(cc1O)CCn1c-2cc2c3cc(OC)c(O)cc3oc(=O)c21 [Compound 196]
GI50 (K-562): 234 nM | CC50 (K-562): 1500 nM | IC (TGI) (K-562): 614 nM | GI50 (A-549): 1680 nM | CC50 (A-549): 26400 nM | IC (TGI) (A-549): 26400 nM | GI50 (SK-MEL-28): 675 nM | CC50 (SK-MEL-28): 26400 nM | IC (TGI) (SK-MEL-28): 8990 nM | GI50 (HT-29): 8460 nM | CC50 (HT-29): 26400 nM | IC (TGI) (HT-29): 26400 nM | GI50 (LoVo): 799 nM | CC50 (LoVo): 26400 nM | IC (TGI) (LoVo): 3530 nM | GI50 (LoVo-Dox): 517 nM | CC50 (LoVo-Dox): 26400 nM | IC (TGI) (LoVo-Dox): 26400 nM | GI50 (DU-145): 414 nM | CC50 (DU-145): 11200 nM | IC (TGI) (DU-145): 1650 nM | GI50 (LNCaP): 398 nM | CC50 (LNCaP): 9780 nM | IC (TGI) (LNCaP): 1450 nM | GI50 (SK-BR-3): 654 nM | CC50 (SK-BR-3): 26400 nM | IC (TGI) (SK-BR-3): 1650 nM | GI50 (IGROV): 691 nM | CC50 (IGROV): 16500 nM | IC (TGI) (IGROV): 2490 nM | GI50 (IGROV-ET): 849 nM | CC50 (IGROV-ET): 26400 nM | IC (TGI) (IGROV-ET): 3850 nM | GI50 (HeLa): 351 nM | CC50 (HeLa): 26400 nM | IC (TGI) (HeLa): 1930 nM | GI50 (HeLa-APL): 117 nM | CC50 (HeLa-APL): 1920 nM | IC (TGI) (HeLa-APL): 511 nM | GI50 (PANC-1): 957 nM | CC50 (PANC-1): 26400 nM | IC (TGI) (PANC-1): 7250 nM
